From US12399167B2 (priority 2019, dated 2025)
Converted amounts (≈) assume the structure as drawn. “And” between values parts separate entries of the source, which are not always exact repeats. Equal values may be shown once. Read-outs that look alike come from different tables or passages of the source.

Experiments:
[1] = test system: zebrafish embryos and larvae (AB strain); conditions: for NH: Number of health fish: of 60 embryos
Experimental: Toxicant exposure of the embryos: transferring healthy zebrafish embryos laid within 4 hours with droppers into 24 well plates which serve as embryo incubation containers, adding one embryo and 2 mL of the test drug liquid into each well, setting four replicates at a time for each concentration, using a total of 4×15 embryos per concentration; then, placing the 24 well plates into an incubator at a temperature of 26±1° C., allowing incubation under a condition of 14 h light: 10 h dark, recording the death number and the incubation time of the embryos every day, and replacing the test drug liquids once every two days during this test stage. Each concentration consumes a total of 60 embryos, and thus multiple 24 well plates are used during the test.
Selection of a test organism: zebrafish is selected as the test organism, the zebrafish is AB strain and embryos used in the test are propagated and obtained by the following methods: before the test, zebrafish broodstock is reared in water at a temperature of 26±1° C., the ratio of light time to dark time is 14 h:10 h, and when it is lighted, it should be naturally illuminated in a 4.8 m×3.0 m room, plus four 40 W fluorescent lamps, and the feeding lasts at least 2 weeks in an environment which is oxygenated by aeration, the zebrafish broodstock is fed once a day during pre-cultivation, and feces and food residues are removed in time. The zebrafish is purchased from the Institute of Hydrobiology of Chinese Academy of Science. The zebrafish has the advantages of short growth cycle, strong reproductive ability, transparent fertilized eggs, and easy observation of embryonic development, making it an important model organism in aquatic ecological toxicology research.
Toxicant exposure of larvae: recording the number of the larvae at the end of the embryo hatching, transferring the larvae into glass beakers containing 200 mL of the test drug liquid with the corresponding test concentration, replacing the test drug liquids once every two days during this test stage that lasts 30 days after hatching, and feeding the zebrafish larvae with yolk in the first three days and then with fairy shrimp twice a day, wherein the larvae are firstly fed on the fourth or fifth day after spawning. The feed amount is adjusted according to the actual situation so as to be able to freely ingest and avoid excess.
During the test, if relevant test data are found to be not in the preceding scopes, then the current test is invalid, and a new test is required to be carried out again.
Observation in the test: observing the hatching rate and survival rate and recording the quantity of the larvae once a day; checking the larvae's malformation, the number of malformed larvae and abnormal behaviors once a week; removing impurities and dead larvae in beakers in a timely manner; all live larvae of the control groups and the concentration test groups are anesthetized with MS-222 for measurement of the body lengths and wet weights one by one at the end of the test, wherein the body length of each adolescent fish is measured with a vernier caliper, and the wet weight of each adolescent fish is weighed with an electronic balance. The reciprocal sensibility of the electronic balance is 0.00001 g, and the moisture on the body surface of each fish needs to be removed when the wet weight is weighed.
DPS statistical analysis software is the existing software and therefore is not described in detail here. Any other software that can implement the statistical analysis function is also available.

[2] = 20° C.; cited from earlier work

For `CN/C(=N/CC1CCOC1)N[N+](=O)[O-]` (centres unmarked) [dinotefuran], the “weights of the larvae versus control groups” value ([1]; 9.375 mg a.i./L) was “obviously different”, the “AL: Average length of live fish” value ([1]; 9.375 mg a.i./L, end of test) was 15.86 ± 0.95 a mm and the “AM: Accumulative mortality” value ([1]; 9.375 mg a.i./L, end of test) was 26.67 a %. The “NH: Number of health fish” value ([1]; 9.375 mg a.i./L, end of test) was 44 Piece, the “Average weight of Live fish” value ([1]; 9.375 mg/L, end of test) was 16.53 ± 2.18 b mg and the “weights of the larvae versus control groups” value ([1]; 18.75 mg a.i./L) was “obviously different”. For the same compound, the “AL: Average length of live fish” value ([1]; 18.75 mg a.i./L, end of test) was 15.83 ± 0.88 a mm, the “AM: Accumulative mortality (death rate of the larvae)” value (“AM … (death rate of the larvae)” below) ([1]; 18.75 mg a.i./L, end of test) was 41.67% and 41.67 b % and the “NH: Number of health fish” value ([1]; 18.75 mg a.i./L, end of test) was 35 Piece. For the same compound, the “Average weight of Live fish” value ([1]; 18.75 mg/L, end of test) was 14.21 ± 1.68 c mg, the “body lengths of the larvae versus control groups” value ([1]; 37.5 mg a.i./L) was “obviously different” and the “weights of the larvae versus control groups” value ([1]; 37.5 mg a.i./L) was “obviously different”. The “AL: Average length of live fish” value ([1]; 37.5 mg a.i./L, end of test) was 13.52 ± 1.61 b mm, the “AM … (death rate of the larvae)” value ([1]; 37.5 mg a.i./L, end of test) was 46.67% and 46.67 b % and the “NH: Number of health fish” value ([1]; 37.5 mg a.i./L, end of test) was 32 Piece. For the same compound, the “Average weight of Live fish” value ([1]; 37.5 mg/L, end of test) was 13.89 ± 1.96 c mg, the “body lengths of the larvae versus control groups” value ([1]; 75.0 mg a.i./L) was “obviously different” and the “weights of the larvae versus control groups” value ([1]; 75.0 mg a.i./L) was “obviously different”. The “AL: Average length of live fish” value ([1]; 75.0 mg a.i./L, end of test) was 12.83 ± 1.53 b mm, the “AM … (death rate of the larvae)” value ([1]; 75.0 mg a.i./L, end of test) was 55.0% and 55.0 b % and the “NH: Number of health fish” value ([1]; 75.0 mg a.i./L, end of test) was 27 Piece. The “Average weight of Live fish” value ([1]; 75.0 mg/L, end of test) was 13.29 ± 2.96 c mg, the “fate of all larvae at the end of the test” value ([1]; 150 mg a.i./L) was “died” and the “fate of all larvae at the end of the test” value ([1]; 300 mg a.i./L) was “died”. For the same compound, the “minimum observable effect concentration on the body lengths of the larvae” value ([1]; end of test) was 37.5 mg a.i./L, the “minimum observable effect concentration on the weights of the larvae” value ([1]; end of test) was 9.375 mg a.i./L and the “unobservable effect concentration on the body lengths of the larvae” value ([1]; end of test) was 18.75 mg a.i./L. The “toxic symptoms during the exposure stage” value ([1]; test groups) was “no obvious toxic symptoms were observed except malformation of several fishes before death” and the solubility in methanol [2] was 57 mg/mL (≈ 282 mM).
